Where no end group is shown, it is not given here.
Target: T1, HLA-A*11:01 protein (Homo sapiens, UniProt P04439, A114D/D185E/E176A/F33Y/L180Q/S129P/T187R)
T1 construct: biotin (biotinylated)
Test: Bio-Layer Interferometry (BLI) affinity test, Octet R8
Settings: Octet R8, SSA sensors, peptides 100-3.125 µM in PBST (PBS+0.02%Tween20+1% DMSO), balance, binding, dissociation 60 s each

For SQCVNFTTR, the KD was “Non-binding” and the KD (listed as 13[…]21) was “not detected”.
With GLSPTKLNDL the Kd was 319 µM.
KCYGLSPTK was tested, and the Kd was 23 µM.
FSTFKCYGL was tested, and the Kd was 5.95 µM.

— publication PMC9006954, “Computer-Based Immunoinformatic Analysis to Predict Candidate T-Cell Epitopes for SARS-CoV-2 Vaccine Design” (Frontiers in Immunology, 2022)
